Literature values, collected in patent publication US20030060663A1, “Novel therapeutic agents for macromolecular structures” (priority 1998, published 2003).
Like-named read-outs stand apart in the source and are kept apart here.

How the values were obtained:
[1] = system: HRV-9; conditions: against HRV-9
[2] = system: mitotic microtubules; conditions: intact tectal plates from mouse embryos; blockade of cells at metaphase
[3] = system: axonal microtubules; conditions: intact tectal plates from mouse embryos
[4] = system: HRV (human rhinovirus)-16, 39, and 50; conditions: administered orally to patients infected with HRV-16, 39, and 50
[5] = system: coxsackievirus A21; conditions: p.o. administration, patients challenged with coxsackievirus A21
[6] = animal models
[7] = clinical trials
[8] = system: fungal pathogens; conditions: on average; for MIC values, fold higher than amphotericin B: range of fungal pathogens
[9] = system: yeasts; conditions: relative to amphotericin B
[10] = system: Microsporum, Epidermophyton and Trichophyton; conditions: various species of Microsporum

COc1ccc(N2CCN(c3cccc(C)c3)CC2)nn1 [compound C]
prophylactic use [1]: worked prophylactically

CC[C@]1(O)C[C@H]2CN(CCc3c([nH]c4ccccc34)[C@@](C(=O)OC)(c3cc4c(cc3OC)N(C=O)[C@H]3[C@@](O)(C(=O)OC)[C@H](OC(C)=O)[C@]5(CC)C=CCN6CC[C@]43[C@@H]65)C2)C1 [vincristine, Vincristine]
concentration at which mitotic microtubule formation is inhibited [2]: 2 mcM | concentration producing depolymerization of axonal microtubules [3]: 5 mcM

Cc1cc(CCCCCOc2c(Cl)cc(C3N=CCO3)cc2Cl)on1 (centres unmarked) [Compound A]
therapeutic effect [4]: did not demonstrate a therapeutic effect | prophylactic effect in clinical trials [5]: prophylactic effect

COC(=O)[C@H]1[C@@H]2C[C@@H](O[C@@H]3O[C@H](C)[C@@H](O)[C@H](N)[C@@H]3O)/C=C/C=C/C=C/C=C/C=C/C=C/C=C/[C@H](C)[C@@H](O)[C@@H](C)[C@H](C)OC(=O)C[C@H](O)C[C@H](O)CC[C@@H](O)[C@H](O)C[C@H](O)C[C@](O)(C[C@@H]1O)O2 [Amphotericin B methyl ester]
nephrotoxicity compared with amphotericin B [6]: less nephrotoxic | nephrotoxicity compared with amphotericin B [7]: less nephrotoxic

CCC1=C[C@@H]2CN(C1)Cc1c([nH]c3ccccc13)[C@@](C(=O)OC)(c1cc3c(cc1OC)N(C)[C@H]1[C@@](O)(C(=O)OC)[C@H](OC(C)=O)[C@]4(CC)C=CCN5CC[C@]31[C@@H]54)C2 [vinorelbine, 3′,4′-Didehydro-4′-deoxy-C′-norvincaleukoblastine]
concentration at which mitotic microtubule formation is inhibited [2]: 2 mcM | concentration producing depolymerization of axonal microtubules [3]: 40 mcM

COC12CC(O)CC(O)C(O)CCC(O)CC(O)CC(=O)OC(C)C(C)C(O)C(C)C=CC=CC=CC=CC=CC=CC=CC(OC3OC(C)C(O)C(N)C3O)CC(O1)C(C(=O)O)C(O)C2 (centres unmarked) [methoxy ketal]
MIC values, fold higher than amphotericin B [8]: 2 fold

CC1C=CC=CC=CC=CC=CC=CC=CC(OC2OC(C)C(O)C(N)C2O)CC2OC(OCCO)(CC(O)CC(O)C(O)CCC(O)CC(O)CC(=O)OC(C)C(C)C1O)CC(O)C2C(=O)O (stereo not drawn) [beta-hydroxyethoxy ketal]
MIC values, fold higher than amphotericin B [8]: 2 fold

monovalent adduct of amphotericin B with N,N′-1,6-hexandiyl-bis(maleimide)
MIC values against yeasts, fold higher than amphotericin B [9]: more than 20 fold

CC[C@]1(O)C[C@@H]2CN(CCc3c([nH]c4ccccc34)[C@@](C(=O)OC)(c3cc4c(cc3OC)N(C)[C@H]3[C@@](O)(C(=O)OC)[C@H](OC(C)=O)[C@]5(CC)C=CCN6CC[C@]43[C@@H]65)C2)C1 [vinblastine]
concentration at which mitotic microtubule formation is inhibited [2]: 2 mcM | concentration producing depolymerization of axonal microtubules [3]: 30 mcM

COC1=CC(=O)C[C@@H](C)[C@]12Oc1c(Cl)c(OC)cc(OC)c1C2=O [Griseofulvin]
in vitro activity against fungi [10]: fungistatic

CCCOC12CC(O)CC(O)C(O)CCC(O)CC(O)CC(=O)OC(C)C(C)C(O)C(C)C=CC=CC=CC=CC=CC=CC=CC(OC3OC(C)C(O)C(N)C3O)CC(O1)C(C(=O)O)C(O)C2 (centres unmarked) [n-propyloxy ketal]
fold less potent in vitro [8]: 10 fold

COC(=O)C1C(O)CC2(O)CC(O)CC(O)C(O)CCC(O)CC(O)CC(=O)OC(C)C(C)C(O)C(C)C=CC=CC=CC=CC=CC=CC=CC(OC3OC(C)C(O)C(NC(=O)C(N)CCCN)C3O)CC1O2 (centres unmarked) [N-ornithyl amphotericin B methyl ester]
nephrotoxicity compared with amphotericin B [6]: less nephrotoxic
